Measured values published in ChEMBL document CHEMBL4825753 (J Med Chem, 2021).
The source made the active and inactive calls. The rule behind the calls is not given here.

Tests used:
[1] = Photostability of compound assessed as half life; format: physicochemical
[2] = molecular target: T1, Tyrosine-protein kinase Mer (Homo sapiens, UniProt Q12866); assay: Inhibition of MER (unknown origin) by LC-MS analysis
T1 sequence (Q12866 whole entry): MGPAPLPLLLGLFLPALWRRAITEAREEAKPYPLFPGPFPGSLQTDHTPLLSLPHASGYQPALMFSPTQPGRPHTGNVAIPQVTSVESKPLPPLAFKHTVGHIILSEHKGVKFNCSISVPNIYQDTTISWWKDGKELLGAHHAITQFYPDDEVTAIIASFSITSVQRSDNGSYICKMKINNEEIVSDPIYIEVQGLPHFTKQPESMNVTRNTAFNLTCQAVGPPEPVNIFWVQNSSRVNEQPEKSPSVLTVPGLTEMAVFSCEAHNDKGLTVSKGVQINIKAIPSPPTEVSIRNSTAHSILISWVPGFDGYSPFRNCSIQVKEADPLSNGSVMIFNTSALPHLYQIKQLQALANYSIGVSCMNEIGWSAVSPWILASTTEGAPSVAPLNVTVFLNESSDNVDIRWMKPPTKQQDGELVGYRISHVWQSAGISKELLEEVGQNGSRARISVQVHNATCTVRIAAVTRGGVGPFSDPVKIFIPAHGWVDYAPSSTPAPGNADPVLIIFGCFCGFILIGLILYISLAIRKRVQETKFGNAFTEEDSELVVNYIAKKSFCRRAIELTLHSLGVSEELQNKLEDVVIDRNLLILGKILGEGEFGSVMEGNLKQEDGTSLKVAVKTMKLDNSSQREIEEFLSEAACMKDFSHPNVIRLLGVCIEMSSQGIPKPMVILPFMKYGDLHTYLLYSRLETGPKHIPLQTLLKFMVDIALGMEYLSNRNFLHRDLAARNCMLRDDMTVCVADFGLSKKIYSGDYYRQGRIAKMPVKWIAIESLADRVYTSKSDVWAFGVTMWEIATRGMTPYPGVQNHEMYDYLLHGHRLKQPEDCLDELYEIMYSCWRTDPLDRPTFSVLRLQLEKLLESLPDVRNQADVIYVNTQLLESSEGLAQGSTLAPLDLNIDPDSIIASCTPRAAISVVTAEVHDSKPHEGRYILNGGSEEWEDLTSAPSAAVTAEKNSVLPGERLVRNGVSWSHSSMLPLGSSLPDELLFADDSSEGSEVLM

[3] = Fraction unbound in C57BL/6J mouse implanted with mouse BaF3 cells transfected with MER in at 3 to 100 mg/kg, po bid for 6 days; format: ADME, organism-based; settings: in vivo, dose 3-100 mg/kg, time 6 day
BaF3 [4] = assay: Growth inhibition of mouse BaF3 cells transfected with Tyro3 assessed as inhibition of cell growth incubated for 72 hrs by Cell-titer-Glo assay; format: functional
BaF3 [5] = assay: Antitumour activity against mouse BaF3 cells transfected with MER implanted in C57BL/6J mouse assessed as reduction in tumour growth at 100 mg/kg, po bid for 6 days; format: functional, organism-based; settings: time 6.0 day
BaF3 [6] = assay: Antitumour activity against mouse BaF3 cells transfected with MER implanted in C57BL/6J mouse assessed as reduction in MER phosphorylation at 30 to 100 mg/kg, po bid for 6 days by western blot analysis; format: functional, organism-based; settings: dose 30-100 mg/kg, time 6.0 day
BaF3 [7] = assay: Antitumour activity against mouse BaF3 cells transfected with AXL implanted in C57BL/6J mouse assessed as reduction in tumour growth at 3 to 100 mg/kg, po bid for 6 days; format: functional, organism-based; settings: dose 3-100 mg/kg, time 6.0 day
[8] = Fraction unbound in C57BL/6J mouse implanted with mouse BaF3 cells transfected with AXL in at 3 to 100 mg/kg, po bid for 6 days; format: ADME, organism-based; settings: in vivo, dose 3-100 mg/kg, time 6 day
BaF3 [9] = assay: Growth inhibition of mouse BaF3 cells transfected with MER assessed as inhibition of cell growth incubated for 72 hrs by Cell-titer-Glo assay; format: functional
BaF3 [10] = assay: Growth inhibition of mouse BaF3 cells transfected with FLT3 assessed as inhibition of cell growth incubated for 72 hrs by Cell-titer-Glo assay; format: functional
BaF3 [11] = assay: Growth inhibition of mouse BaF3 cells transfected with AXL assessed as inhibition of cell growth incubated for 72 hrs by Cell-titer-Glo assay; format: functional
BaF3 [12] = assay: Growth inhibition of mouse BaF3 cells assessed as inhibition of cell growth incubated for 72 hrs by Cell-titer-Glo assay; format: functional
BaF3 [13] = assay: Antitumour activity against mouse BaF3 cells transfected with AXL implanted in C57BL/6J mouse assessed as reduction in AXL phosphorylation at 30 to 100 mg/kg, po bid for 6 days western blot analysis; format: functional, organism-based; settings: dose 30-100 mg/kg, time 6.0 day
MC-38 = assay: Antitumour activity against mouse MC38 cells implanted in C57BL6 mouse assessed as increase in survival at 100 mg/kg, po bid for 2 weeks co-treatment with anti-PD1 further treated with ionizing radiation; format: functional, organism-based

| half-life [1] [h] | IC50 [2] [nM] | fraction unbound at 144 h [3] | GI50 (BaF3 [4]) [nM] | fraction unbound at 144 h [8] | GI50 (BaF3 [9]) [nM] | GI50 (BaF3 [10]) [nM] | GI50 (BaF3 [11]) [nM] | GI50 (BaF3 [12]) [nM] | Compound | Activity (BaF3 [5]) | Activity (BaF3 [6]) | Activity (BaF3 [7]) | Activity (BaF3 [13]) | Activity (MC-38) |
| --- | --- | --- | --- | --- | --- | --- | --- | --- | --- | --- | --- | --- | --- | --- |
| 69 | 3.16 | – | – | – | – | – | – | – | Cc1cc(-c2c(C)nn(C)c2C)ccc1-c1nnc(N(C)Cc2ccc3nccn3c2)o1 | – | – | – | – | – |
| – | 100 | – | – | – | – | – | – | – | Cc1cc(-c2c(C)nn(C)c2C)cnc1-c1nnc(N(C)Cc2ccc3nccn3c2)o1 | – | – | – | – | – |
| – | – | 0.076 | 5010 | 0.076 | 25.1 | 3160 | 100 | 3980 | Cc1cc(-c2c(C)nn(C)c2C)cnc1-c1nnc(N(C)Cc2ccc3ncc(-c4ccc(CN(C)C)cc4)n3c2)o1 | Active | Active | Active | Active | Active |
